One compound from patent publication US20020169183A1, “Acridines as stimulators for Fas-mediated apoptosis” (priority 2001, published 2002) can be followed below.

One test concerns Hepatocytes. Kind of test: Fas-dependent apoptosis by FACS analysis (DNA fragmentation, propidium iodide; annexin V). Type of test: cell-based. The following applies: at 10 μM. The method, then: Assays for Fas-dependent apoptosis are known in the art. See, for example, Ruiz-Ruiz et al, Cell Death Diff. 6:271 (1999); and Muller et al., […]. 188:2033 (1998).
Apoptosis is identified by detection of the DNA fragmentation pattern characteristic of apoptotic cell death. In this Example, apoptosis is detected and measured by FACS® analysis carried out in a FACScan® flow cytometer (Becton Dickinson) using CellQuest software. Quantification of DNA fragmentation is performed by FACS® analysis of propidium iodide-stained nuclei as described in Nicolletti et al., J. Immunol. Methods 139:271-279 (1991). Hepatocytes floating in the culture medium are collected by centrifugation at 200× g. Adherent hepatocytes are harvested by incubation with 1% trypsin for 1 min. The cells are washed in phosphate-buffered saline (PBS), suspended in hypotonic lysis buffer (0.1% sodium citrate, 0.1% Triton X, and […] propidium iodide) (Sigma) and incubated at 4° C. for 6 hours. Cells are then analyzed for DNA content by flow cytometry.
Early apoptotic changes are identified using annexin V-Fluos (Boehringer Mannheim) which binds to phosphatidylserine molecules (PS) exposed on apoptotic, but not normal, cell membranes (PS is normally restricted to the inner leaflet of the cell membrane bilayer). […] Cells are incubated for 10-15 min and analyzed on a flow cytometer using CellQuest software. […]

A further test deals with Synoviocytes. Briefly: Stimulation of Fas-mediated apoptosis: XTT cell viability with anti-human Fas antibody h-HFE7A, stimulation index. Format: cell-based. The following applies: 10 μM compound with h-HFE7A 1000 ng/mL, synoviocytes from rheumatoid arthritis patients, 16 hours. From the text: Anti-human Fas antibody h-HFE7A, humanized antibody was obtained from Sankyo Co., Ltd. This antibody induces apoptosis when cross-linked with secondary antibody in vitro.
Samples of human synovium were obtained from rheumatoid arthritis patients at the time of total knee replacement surgery or synoviectomy. Synovial tissue was minced into small pieces and was digested with collagenase and cultured in Ham's F12 medium supplemented with 10% fetal bovine serum (F10F) in a humidified 5% CO2 atmosphere at 37° C. Adherent cells were considered as synoviocytes and were cultivated in F10F.
Cell viability was determined with the XTT method described in Cancer Res. 48:4827 (1988). Ninety-six well flat plates were precoated with anti-human IgG. h-HFE7A (1000 ng/mL) and/or 10 μM of a compound of this invention were added and incubated for 2 hours. Synoviocytes were seeded (10,000/well) and incubated for 16 hours. Background wells received culture medium only. XTT (2,3-Bis[2-methoxy-4-nitro-sulfophenyl]-2H-tetrazolium-5-carboxanilide), final concentration 200 μg/mL, and phenazine methosulfate, final concentration 5 μM, were added to each well, and further incubated for 4 hours. The absorbance at 450 nm was measured and cell viability was determined as follows: [formula]
Enhancement of Fas-mediated apoptosis by compounds of this invention was determined by the stimulation index (SI): [formula] […]

Molecules are shown by their SMILES.

Regarding `CCN(CC)CCCNc1c2ccccc2nc2ccccc12` [Compound 3, 9-[(3-diethylaminopropyl)amino]acridine], the “stimulation of Fas-dependent apoptosis” value in the test with Hepatocytes is on record as “shows stimulation”. In addition, the “Enhancement of Fas-mediated apoptosis, stimulation index (SI)” value with Synoviocytes was “positive (An SI over 2.0 was considered positive)”.
